This note sets out measurements from PMC5945292 (Biochemistry, 2013).

What is called Kd is the constant that tells how readily two partners part at equilibrium. Lower therefore signals tighter binding.

Assay type in all cases: binding
The target of test [1] is cytochrome P450 BM-3 (Priestia megaterium, UniProt P14779, R48K). The test is described as follows: spectral.
Test [2] concerns the target cytochrome P450 BM-3 (Priestia megaterium, UniProt P14779, R48Q). As to the kind of experiment: spectral.
Test [3] deals with T1, cytochrome P450 BM-3 (Priestia megaterium, UniProt P14779).
T1 sequence (P14779 1-1049): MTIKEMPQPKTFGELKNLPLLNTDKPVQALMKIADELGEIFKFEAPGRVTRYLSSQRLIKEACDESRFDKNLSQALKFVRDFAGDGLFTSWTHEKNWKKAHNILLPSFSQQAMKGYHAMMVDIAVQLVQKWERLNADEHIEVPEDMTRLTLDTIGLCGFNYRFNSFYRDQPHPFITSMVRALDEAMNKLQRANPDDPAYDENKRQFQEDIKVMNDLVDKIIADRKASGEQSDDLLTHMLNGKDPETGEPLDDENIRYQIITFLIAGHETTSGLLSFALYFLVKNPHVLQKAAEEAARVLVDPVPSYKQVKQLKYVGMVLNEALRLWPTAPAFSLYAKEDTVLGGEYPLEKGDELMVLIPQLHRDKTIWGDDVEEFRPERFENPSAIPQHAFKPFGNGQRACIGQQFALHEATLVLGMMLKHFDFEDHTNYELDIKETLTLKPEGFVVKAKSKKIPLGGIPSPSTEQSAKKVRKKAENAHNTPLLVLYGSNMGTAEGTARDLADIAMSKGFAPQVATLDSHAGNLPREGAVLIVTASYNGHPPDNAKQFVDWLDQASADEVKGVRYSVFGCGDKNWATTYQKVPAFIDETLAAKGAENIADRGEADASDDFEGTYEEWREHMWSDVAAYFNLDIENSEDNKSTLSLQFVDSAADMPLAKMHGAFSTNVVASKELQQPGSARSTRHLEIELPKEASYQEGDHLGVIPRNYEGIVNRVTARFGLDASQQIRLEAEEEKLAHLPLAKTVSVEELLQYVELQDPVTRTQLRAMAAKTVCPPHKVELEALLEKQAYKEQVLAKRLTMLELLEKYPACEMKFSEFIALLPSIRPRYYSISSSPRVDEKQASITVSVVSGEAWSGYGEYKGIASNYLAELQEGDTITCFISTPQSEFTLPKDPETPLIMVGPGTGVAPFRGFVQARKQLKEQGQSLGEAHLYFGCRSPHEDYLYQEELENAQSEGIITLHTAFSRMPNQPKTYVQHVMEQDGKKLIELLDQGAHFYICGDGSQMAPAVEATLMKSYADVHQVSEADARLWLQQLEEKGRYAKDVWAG
The test is described as follows: crystal structure at […] Å.

Chain of cytochrome P450 BM-3 (Priestia megaterium, UniProt P14779, R48Q) (P14779 whole entry R48Q): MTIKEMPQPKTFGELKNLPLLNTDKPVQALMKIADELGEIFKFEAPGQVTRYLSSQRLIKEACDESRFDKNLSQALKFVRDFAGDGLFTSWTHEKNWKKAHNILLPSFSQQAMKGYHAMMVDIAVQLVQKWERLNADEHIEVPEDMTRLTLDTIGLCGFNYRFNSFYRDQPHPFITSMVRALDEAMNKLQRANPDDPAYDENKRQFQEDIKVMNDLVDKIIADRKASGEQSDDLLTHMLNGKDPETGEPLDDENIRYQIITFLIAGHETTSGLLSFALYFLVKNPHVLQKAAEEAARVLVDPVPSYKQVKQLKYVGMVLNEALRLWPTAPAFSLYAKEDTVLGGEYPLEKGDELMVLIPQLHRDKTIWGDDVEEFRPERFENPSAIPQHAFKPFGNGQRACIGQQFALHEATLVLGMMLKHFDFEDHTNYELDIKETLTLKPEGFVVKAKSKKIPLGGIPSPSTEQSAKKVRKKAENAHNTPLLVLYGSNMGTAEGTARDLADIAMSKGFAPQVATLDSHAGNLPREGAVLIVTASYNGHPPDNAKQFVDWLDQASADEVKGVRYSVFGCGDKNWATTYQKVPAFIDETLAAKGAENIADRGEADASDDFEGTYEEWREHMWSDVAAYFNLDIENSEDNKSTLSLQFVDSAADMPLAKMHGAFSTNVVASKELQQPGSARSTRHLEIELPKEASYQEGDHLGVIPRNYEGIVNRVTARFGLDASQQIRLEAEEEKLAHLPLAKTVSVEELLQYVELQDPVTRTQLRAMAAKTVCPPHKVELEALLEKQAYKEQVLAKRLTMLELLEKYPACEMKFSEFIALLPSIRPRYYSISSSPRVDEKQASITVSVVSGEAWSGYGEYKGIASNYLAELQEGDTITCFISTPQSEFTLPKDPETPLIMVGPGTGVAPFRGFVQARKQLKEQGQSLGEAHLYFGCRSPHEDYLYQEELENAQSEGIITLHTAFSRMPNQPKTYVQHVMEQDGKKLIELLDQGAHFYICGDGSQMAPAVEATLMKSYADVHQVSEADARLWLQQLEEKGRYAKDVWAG
Chain of cytochrome P450 BM-3 (Priestia megaterium, UniProt P14779, R48K) (P14779 whole entry R48K): as the sequence (P14779 whole entry R48Q) above, with Q48K counted along it

`CCCCCCCCCCCCCCCC(=O)NCC(=O)O` [NPG, N-palmitoylglycine]: the dissociation constant (Kd) stood at 1200 ± 100 nM at cytochrome P450 BM-3 [1], 7000 ± 700 nM on cytochrome P450 BM-3 [2] and 370 ± 50 nM on cytochrome P450 BM-3 [3].
